Measurements taken from patent US20080207700A1, “Amino Acid Salts of Rosiglitazone” (priority 2005, published 2008).

Assay: Solubility of rosiglitazone salts in buffer solutions (absorption at 345 nm)
Experimental: The following buffer solutions were used:
Thereafter, the suspensions were treated in an ultrasonic bath for 1 minute, the pH was checked and, where necessary, readjusted to the value given respectively below. Then, the solutions were 0.45 μm filtrated.
The absorption of thus produced solutions was measured at 345 nm.

Structure (SMILES): CN(CCOc1ccc(CC2SC(=O)NC2=O)cc1)c1ccccn1.O=C(O)/C=C\C(=O)O (centres unmarked) [Maleate, rosiglitazone maleate]
- water solubility (pH 6): < 0.1 mg/mL

Structure (SMILES): CN(CCOc1ccc(CC2SC(=O)NC2=O)cc1)c1ccccn1 (centres unmarked) [Base, 5-(4-/2-(N-methyl-N-(2-pyridyl)amino)ethoxy/benzyl)-2,4-thiazolidinedione]
- solubility at 1 min (pH 11.8, aqueous buffer, thermodynamic from solid): > 50 mg/mL
